In patent US20150246902A1, “SUBSTITUED BENZOFURAN COMPOUNDS AND METHODS OF USE THEREOF FOR THE TREATMENT OF VIRAL DISEASES” (priority 2011, published 2015):
pIC50: −log10 of the molar value.

Legend:
HCV replicon genotype 1a = test: microbe, parasite or virus in culture; format: cell-based; settings: Hepatitis C virus, 96 h, HCV genotype 1a replicon cells, 96 hours incubation, NS3/4A ELISA readout
HCV replicon genotype 1b = test: microbe, parasite or virus in culture; format: cell-based; settings: Hepatitis C virus, 96 h, HCV genotype 1b replicon cells, 96 hours incubation, NS3/4A ELISA readout

SMILES	pIC50 (HCV replicon genotype 1a)	pIC50 (HCV replicon genotype 1b)
CNC(=O)c1c(-c2ccc(F)cc2)oc2cc(N(C)S(C)(=O)=O)c(-c3cc4c(cn3)ncn4-c3cc(F)cc(F)c3)cc12 [Compound 45]	7.02	7.84
CNC(=O)c1c(-c2ccc(F)cc2)oc2cc(N(C)S(C)(=O)=O)c(-c3ccc4[nH]nc(-c5ccc(C(F)(F)F)cc5)c4c3)cc12 [Compound 75]	8.10	8.14
CNC(=O)c1c(-c2ccc(F)cc2)oc2cc(N(C)S(C)(=O)=O)c(-c3ccc4ccn(-c5ccc(F)cc5)c4c3)cc12 [Compound 59]	7.82	8.28
CNC(=O)c1c(-c2ccc(F)cc2)oc2cc(N(C)S(C)(=O)=O)c(-c3ccc4[nH]ccc4c3)cc12 [Compound 62]	6.74	7.64
CNC(=O)c1c(-c2ccc(F)cc2)oc2cc(N(C)S(C)(=O)=O)c(-c3cc(-c4cc5ccccc5[nH]4)c4nc(C)cn4c3)cc12 [Compound 99, 5-(8-(1H-indol-2-yl)-2-methylimidazo[1,2-a]pyridin-6-yl)-2-(4-fluorophenyl)-N-methyl-6-(N-methylmethylsulfonamido)benzofuran-3-carboxamide]	8.51	8.28
CNC(=O)c1c(-c2ccc(F)cc2)oc2cc(N(C)S(C)(=O)=O)c(-c3ccc4c(ccn4-c4ccccc4)c3)cc12 [Compound 53]	7.09	7.90
CNC(=O)c1c(-c2ccc(F)cc2)oc2cc(N(C)S(C)(=O)=O)c(-c3cc(OC)c4nc(N)n(-c5cc(F)cc(F)c5)c4c3)cc12 [Compound 78, 5-(2-amino-1-(3,5-difluorophenyl)-4-methoxy-1H-benzo[d]imidazol-6-yl)-2-(4-fluorophenyl)-N-methyl-6-(N-methylmethylsulfonamido)benzofuran-3-carboxamide]	7.72	8.28
CNC(=O)c1c(-c2ccc(F)cc2)oc2cc(N(C)S(C)(=O)=O)c(-c3ccc4ncn(C5CCCNC5)c4c3)cc12 (centres unmarked) [Compound 25]	6.23	7.29
CNC(=O)c1c(-c2ccc(F)cc2)oc2cc(N(C)S(C)(=O)=O)c(-c3ccc4ncn(-c5cccc(C#N)c5)c4c3)cc12 [Compound 6]	7.97	8.92
CNC(=O)c1c(-c2ccc(F)cc2)oc2cc(N(C)S(C)(=O)=O)c(-c3ccc4ncn(-c5ccc(OC(F)(F)F)cc5)c4c3)cc12 [Compound 17]	7.42	7.89
CNC(=O)c1c(-c2ccc(F)cc2)oc2cc(N(C)S(C)(=O)=O)c(-c3cc(F)c4nc(C)n(-c5cc(F)cc(F)c5)c4c3)cc12 [Compound 34]	7.61	8.37
CNC(=O)c1c(-c2ccc(F)cc2)oc2cc(N(C)S(C)(=O)=O)c(-c3ccc4ncn(-c5cccnc5)c4c3)cc12 [Compound 16]	7.43	8.34
CNC(=O)c1c(-c2ccc(F)cc2)oc2cc(N(C)S(C)(=O)=O)c(-c3ccc4ncn(-c5ccc(Cl)cc5)c4c3)cc12 [Compound 10]	8.40	8.44
CNC(=O)c1c(-c2ccc(F)cc2)oc2cc(N(C)S(C)(=O)=O)c(-c3ccc4ncn(-c5cccc(OC)c5)c4c3)cc12 [Compound 4]	7.58	8.60
CNC(=O)c1c(-c2ccc(F)cc2)oc2cc(N(C)S(C)(=O)=O)c(-c3ccc4nnc(-c5ccc(F)cc5)n4c3)cc12 [Compound 111, 2-(4-fluorophenyl)-5-(3-(4-fluorophenyl)-[1,2,4]triazolo[4,3-a]pyridin-6-yl)-N-methyl-6-(N-methylmethylsulfonamido)benzofuran-3-carboxamide]	8.32	8.72
CNC(=O)c1c(-c2ccc(F)cc2)oc2cc(N(C)S(C)(=O)=O)c(-c3ccc4[nH]nc(-c5ccc(F)cc5)c4c3)cc12 [Compound 73, 2-(4-fluorophenyl)-5-(3-(4-fluorophenyl)-1H-indazol-5-yl)-N-methyl-6-(N-methylmethylsulfonamido)benzofuran-3-carboxamide]	8.41	8.42
CNC(=O)c1c(-c2ccc(F)cc2)oc2cc(N(C)S(C)(=O)=O)c(-c3ccc4ccn(-c5cccc(F)c5)c4c3)cc12 [Compound 60]	7.34	8.36
CNC(=O)c1c(-c2ccc(F)cc2)oc2cc(N(C)S(C)(=O)=O)c(-c3ccc4ccn(-c5cc(F)cc(F)c5)c4n3)cc12 [Compound 65]	5.82	6.94
CNC(=O)c1c(-c2ccc(F)cc2)oc2cc(N(C)S(C)(=O)=O)c(-c3ccc4ncn(-c5cccc(Cl)c5)c4c3)cc12 [Compound 12]	7.93	8.59
CNC(=O)c1c(-c2ccc(F)cc2)oc2cc(N(C)S(C)(=O)=O)c(-c3ccc4[nH]c(-c5ccccc5)nc4c3)cc12 [Compound 102]	7.84	8.29
CNC(=O)c1c(-c2ccc(F)cc2)oc2cc(N(C)S(C)(=O)=O)c(-c3ccc4nnc(-c5ccc(C(F)(F)F)cc5)n4n3)cc12 [Compound 96, 2-(4-fluorophenyl)-N-methyl-6-(N-methylmethylsulfonamido)-5-(3-(4-(trifluoromethyl)phenyl)-[1,2,4]triazolo[4,3-b]pyridazin-6-yl)benzofuran-3-carboxamide]	7.46	7.78
CNC(=O)c1c(-c2ccc(F)cc2)oc2cc(N(C)S(C)(=O)=O)c(-c3ccc4ncc(-c5ccc(F)cc5)n4n3)cc12 [Compound 95]	7.07	7.36

SMILES	pIC50 (HCV replicon genotype 1a)	pIC50 (HCV replicon genotype 1b)
CNC(=O)c1c(-c2ccc(F)cc2)oc2cc(N(C)S(C)(=O)=O)c(-c3ccc4[nH]c(=O)n(-c5ccc(F)cc5)c4c3)cc12 [Compound 82]	7.64	8.31
CNC(=O)c1c(-c2ccc(F)cc2)oc2cc(N(C)S(C)(=O)=O)c(-c3ncc4ncn(-c5ccc(C#N)cc5)c4n3)cc12 [Compound 42]	5.82	6.52
CNC(=O)c1c(-c2ccc(F)cc2)oc2cc(N(C)S(C)(=O)=O)c(-c3cc(OC)c4nc(C)n(-c5ccc(F)cc5)c4c3)cc12 [Compound 33]	7.86	8.06
CNC(=O)c1c(-c2ccc(F)cc2)oc2cc(N(C)S(C)(=O)=O)c(-c3ccc4[nH]c(-c5ccccc5)nc4n3)cc12 [Compound 101]	7.10	7.77
CNC(=O)c1c(-c2ccc(F)cc2)oc2cc(N(C)S(C)(=O)=O)c(-c3ccc4ccn(-c5ccc(C(F)(F)F)cc5)c4c3)cc12 [Compound 61]	7.47	8.00
CNC(=O)c1c(-c2ccc(F)cc2)oc2cc(N(C)S(C)(=O)=O)c(-c3ccc4nc(-c5ccc(F)cc5)cn4n3)cc12 [Compound 113]	6.73	7.83
CNC(=O)c1c(-c2ccc(F)cc2)oc2cc(N(C)S(C)(=O)=O)c(-c3ccc4ncn(-c5ccc(C#N)cc5)c4c3)cc12 [Compound 5]	8.68	9.10
CNC(=O)c1c(-c2ccc(F)cc2)oc2cc(N(C)S(C)(=O)=O)c(-c3ccc4ccn(-c5ccccc5)c4c3)cc12 [Compound 63]	7.63	8.14
CNC(=O)c1c(-c2ccc(F)cc2)oc2cc(N(C)S(C)(=O)=O)c(-c3ccc4ncn(-c5cccc(F)c5)c4c3)cc12 [Compound 14]	8.57	8.92
CNC(=O)c1c(-c2ccc(F)cc2)oc2cc(N(C)S(C)(=O)=O)c(-c3ncc4ncn(-c5ccc(C(F)(F)F)cc5)c4n3)cc12 [Compound 41]	6.93	8.17
CNC(=O)c1c(-c2ccc(F)cc2)oc2cc(N(C)S(C)(=O)=O)c(-c3ccc4ncn(-c5ccc(F)cc5)c4n3)cc12 [Compound 44]	7.25	8.11
CNC(=O)c1c(-c2ccc(F)cc2)oc2cc(N(C)S(C)(=O)=O)c(-c3ccc4ccn(-c5ccc(F)cc5F)c4n3)cc12 [Compound 66]	5.64	6.65
CNC(=O)c1c(-c2ccc(F)cc2)oc2cc(N(C)S(C)(=O)=O)c(-c3ccc4ncn(-c5ccc(S(C)(=O)=O)cc5)c4c3)cc12 [Compound 13]	7.74	8.42
CNC(=O)c1c(-c2ccc(F)cc2)oc2cc(N(C)S(C)(=O)=O)c(-c3cn4ccnc4cn3)cc12 [Compound 90, 2-(4-fluorophenyl)-5-(imidazo[1,2-a]pyrazin-6-yl)-N-methyl-6-(N-methylmethylsulfonamido)benzofuran-3-carboxamide]	5.66	6.92
CNC(=O)c1c(-c2ccc(F)cc2)oc2cc(N(C)S(C)(=O)=O)c(-c3ccc4[nH]cc(-c5ccccc5)c4c3)cc12 [Compound 70, 2-(4-fluorophenyl)-N-methyl-6-(N-methylmethylsulfonamido)-5-(3-phenyl-1H-indol-5-yl)benzofuran-3-carboxamide]	7.75	7.95
CNC(=O)c1c(-c2ccc(F)cc2)oc2cc(N(C)S(C)(=O)=O)c(-c3ccc4ncn(-c5ccccc5Cl)c4c3)cc12 [Compound 11]	7.41	8.46
CNC(=O)c1c(-c2ccc(F)cc2)oc2cc(N(C)S(C)(=O)=O)c(-c3ccc4ncn(C5CCCN(C(=O)OC(C)(C)C)C5)c4c3)cc12 (centres unmarked) [Compound 24]	6.12	7.08
CNC(=O)c1c(-c2ccc(F)cc2)oc2cc(N(C)S(C)(=O)=O)c(-c3cc(F)c4ncn(-c5cc(F)c(F)c(F)c5)c4c3)cc12 [Compound 31]	8.47	8.51
CNC(=O)c1c(-c2ccc(F)cc2)oc2cc(N(C)S(C)(=O)=O)c(-c3ccc4ncc(-c5ccc(F)cc5)n4c3)cc12 [Compound 112, 2-(4-fluorophenyl)-5-(3-(4-fluorophenyl)imidazo[1,2-a]pyridin-6-yl)-N-methyl-6-(N-methylmethylsulfonamido)benzofuran-3-carboxamide]	7.91	8.15
CNC(=O)c1c(-c2ccc(F)cc2)oc2cc(N(C)S(C)(=O)=O)c(-c3ccc4ccn(Cc5ccc(F)cc5)c4c3)cc12 [Compound 68]	7.27	7.73
CNC(=O)c1c(-c2ccc(F)cc2)oc2cc(N(C)S(C)(=O)=O)c(-c3cccc4nc(-c5ccccc5)oc34)cc12 [Compound 85]	6.34	6.63
